{"source": "paper PMC13198257", "about": "“An aerosolized dual-action autotaxin inhibitor-PPARγ agonist for the treatment of pulmonary fibrosis” (Cell Reports Medicine, 2026)", "system": "lung gene expression", "experiment": "RNA sequencing of lung tissue (BLM/EL244 vs BLM)", "format": "in vivo, mouse", "conditions": "BLM/EL244 vs BLM", "protocol": "RNA quality was assessed using an Agilent TapeStation 4150 with the High Sensitivity […] ScreenTape (Agilent), according to the manufacturer’s protocols. For library preparation, the QuantSeq 3’mRNA-Seq Library Prep Kit (Lexogen) was used according to manufacturer’s instructions. Briefly, 500 ng of RNA from each sample was used for first-strand synthesis, followed by RNA template removal, and second-strand synthesis initiated by random primers. In-line barcodes were introduced at this step, and this was followed by magnetic bead-based purification. The resulting libraries were amplified for 15 cycles and re-purified, with quantity and quality assessed on a Qubit 4 Fluorometer with the Invitrogen Qubit dsDNA HS Assay and an Agilent Tapestation 4150 with the High Sensitivity D1000 assay kit, respectively. The quantified libraries were pooled equimolarly; 50ng of total library mix was used for Adapter Conversion PCR Amplification using the Universal Library Conversion Kit (App-A), Version: V1.0 (MGI Tech Co., Ltd.), according to the manufacturer’s instructions.\nThe quantity and quality of the purified adapter conversion PCR (AC-PCR) product were evaluated on a Qubit 4 Fluorometer with the Invitrogen Qubit dsDNA HS Assay and on an Agilent Tapestation 4150 with the High Sensitivity D1000 assay kit, respectively. This was followed by DNA denaturation, Single-Strand Circularisation, Enzymatic Digestion, Enzymatic Digestion Product Cleanup and Quality Control steps on 1 pmol of AC-PCR product, according to the Universal Library Conversion Kit (App-A) User Manual (Version: A3).\nFinally, 60 fmol of ssCirDNA were used for DNB preparation and sequencing on a DNBSEQ-G400 platform at the BSRC Alexander Fleming Genomics Facility, using a G400 App-A FCS SE100 High-throughput Sequencing Set (MGI Tech Co., Ltd.), according to the manufacturer’s instructions.\nAlignment of the FASTQ files was performed against the mouse genome build mm10 using a custom Bash script.[143] Read counting on the 3′ UTRs and differential expression analysis were conducted using the metaseqR2 bioconductor package.[144] Genes corresponding to the following biotypes were excluded: polymorphic_pseudogene, processed_transcript, pseudogene, IG_V_pseudogene, misc_RNA, IG_C_gene, IG_J_gene, IG_D_gene, IG_LV_gene, TR_V_gene, TR_V_pseudogene, TEC, and processed_pseudogene. Gene counts were normalized with DESEQ[145] through metaseqR2. Genes with more than 10 counts in at least 50% of the samples were kept for further processing. For differential expression analysis, the PANDORA algorithm[146] was used to estimate a meta p-value integrating the results from the DESEQ, DESEQ2,[147] edgeR,[148] limma,[149] NBPSeq,[150] and NOISeq[151] algorithms. All additional parameters were set to default values.\nPathway enrichment analysis was performed for the Gene Ontology Biological process (BP) and Molecular Function (MF) terms through GeneCodis 4.[152] The volcano plots, scatterplots, Venn diagrams, and dot plots were generated using the ggplot2 Bioconductor package.", "key": {"[1]": {"conditions": "lung tissue of BLM-treated mice"}}, "data": [{"smiles": "O=C1NC(=O)C(Cc2ccc(OCCC3CCN(C(=O)OCc4cc(Cl)cc(Cl)c4)CC3)cc2)S1", "note": "(stereo not drawn) [EL244, 3,5-dichlorobenzyl 4-(2-(4-((2,4-dioxothiazolidin-5-yl)methyl)phenoxy)ethyl)piperidine-1-carboxylate]", "values": [{"measurement": "Synm log2 nFC", "setting": "[1]", "result": 0.84}, {"measurement": "Synm nFC", "setting": "[1]", "result": 1.79}, {"measurement": "Tbc1d8 log2 nFC", "setting": "[1]", "result": 1.01}, {"measurement": "Tbc1d8 nFC", "setting": "[1]", "result": 2.01}, {"measurement": "Tbkbp1 log2 nFC", "setting": "[1]", "result": 0.71}, {"measurement": "Tbkbp1 nFC", "setting": "[1]", "result": 1.64}, {"measurement": "Tgfbr3 log2 nFC", "setting": "[1]", "result": 0.83}, {"measurement": "Tgfbr3 nFC", "setting": "[1]", "result": 1.78}, {"measurement": "Tmcc3 log2 nFC", "setting": "[1]", "result": 0.74}, {"measurement": "Tmcc3 nFC", "setting": "[1]", "result": 1.67}, {"measurement": "Tmem100 log2 nFC", "setting": "[1]", "result": 0.82}, {"measurement": "Tmem100 nFC", "setting": "[1]", "result": 1.77}, {"measurement": "Tns2 log2 nFC", "setting": "[1]", "result": 0.77}, {"measurement": "Tns2 nFC", "setting": "[1]", "result": 1.70}, {"measurement": "Tppp3 log2 nFC", "setting": "[1]", "result": 0.77}, {"measurement": "Tppp3 nFC", "setting": "[1]", "result": 1.70}, {"measurement": "Unc45b log2 nFC", "setting": "[1]", "result": 0.77}, {"measurement": "Unc45b nFC", "setting": "[1]", "result": 1.70}, {"measurement": "Vpreb3 log2 nFC", "setting": "[1]", "result": 0.71}, {"measurement": "Vpreb3 nFC", "setting": "[1]", "result": 1.63}, {"measurement": "Vwa3b log2 nFC", "setting": "[1]", "result": 0.98}, {"measurement": "Vwa3b nFC", "setting": "[1]", "result": 1.97}, {"measurement": "Zfp36 log2 nFC", "setting": "[1]", "result": 0.94}, {"measurement": "Zfp36 nFC", "setting": "[1]", "result": 1.92}, {"measurement": "Acss1 log2 nFC", "setting": "lung tissue", "result": 0.65}, {"measurement": "Acss1 nFC", "setting": "lung tissue", "result": 1.56}, {"measurement": "Actn1 log2 nFC", "setting": "lung tissue", "result": -0.60}, {"measurement": "Actn1 nFC", "setting": "lung tissue", "result": 0.66}, {"measurement": "Adam12 log2 nFC", "setting": "lung tissue", "result": -1.57}, {"measurement": "Adam12 nFC", "setting": "lung tissue", "result": 0.34}, {"measurement": "Adamts4 log2 nFC", "setting": "lung tissue", "result": -2.15}, {"measurement": "Adamts4 nFC", "setting": "lung tissue", "result": 0.23}, {"measurement": "Adamts12 log2 nFC", "setting": "lung tissue", "result": -1.47}, {"measurement": "Adamts12 nFC", "setting": "lung tissue", "result": 0.36}, {"measurement": "Adgre1 log2 nFC", "setting": "lung tissue", "result": -0.79}, {"measurement": "Adgre1 nFC", "setting": "lung tissue", "result": 0.58}, {"measurement": "Ahnak log2 nFC", "setting": "lung tissue", "result": 0.61}, {"measurement": "Ahnak nFC", "setting": "lung tissue", "result": 1.52}, {"measurement": "Akap12 log2 nFC", "setting": "lung tissue", "result": 0.65}, {"measurement": "Akap12 nFC", "setting": "lung tissue", "result": 1.57}, {"measurement": "Ankrd37 log2 nFC", "setting": "lung tissue", "result": -1.50}, {"measurement": "Ankrd37 nFC", "setting": "lung tissue", "result": 0.35}, {"measurement": "Anln log2 nFC", "setting": "lung tissue", "result": -2.01}, {"measurement": "Anln nFC", "setting": "lung tissue", "result": 0.25}, {"measurement": "Apoe log2 nFC", "setting": "lung tissue", "result": -0.84}, {"measurement": "Apoe nFC", "setting": "lung tissue", "result": 0.56}, {"measurement": "Arg1 log2 nFC", "setting": "lung tissue", "result": -2.32}, {"measurement": "Arg1 nFC", "setting": "lung tissue", "result": 0.20}, {"measurement": "Arhgef39 log2 nFC", "setting": "lung tissue", "result": -1.70}, {"measurement": "Arhgef39 nFC", "setting": "lung tissue", "result": 0.31}, {"measurement": "Aurka log2 nFC", "setting": "lung tissue", "result": -2.19}, {"measurement": "Aurka nFC", "setting": "lung tissue", "result": 0.22}, {"measurement": "Aurkb log2 nFC", "setting": "lung tissue", "result": -1.85}, {"measurement": "Aurkb nFC", "setting": "lung tissue", "result": 0.28}, {"measurement": "Bex3 log2 nFC", "setting": "lung tissue", "result": -0.75}, {"measurement": "Bex3 nFC", "setting": "lung tissue", "result": 0.59}, {"measurement": "Bhlhe40 log2 nFC", "setting": "lung tissue", "result": -0.85}, {"measurement": "Bhlhe40 nFC", "setting": "lung tissue", "result": 0.56}, {"measurement": "Birc5 log2 nFC", "setting": "lung tissue", "result": -2.03}, {"measurement": "Birc5 nFC", "setting": "lung tissue", "result": 0.25}, {"measurement": "Bmpr2 log2 nFC", "setting": "lung tissue", "result": 0.60}, {"measurement": "Bmpr2 nFC", "setting": "lung tissue", "result": 1.52}, {"measurement": "Brca2 log2 nFC", "setting": "lung tissue", "result": -1.64}, {"measurement": "Brca2 nFC", "setting": "lung tissue", "result": 0.32}, {"measurement": "Brinp1 log2 nFC", "setting": "lung tissue", "result": -1.85}, {"measurement": "Brinp1 nFC", "setting": "lung tissue", "result": 0.28}, {"measurement": "C1qa log2 nFC", "setting": "lung tissue", "result": -1.44}, {"measurement": "C1qa nFC", "setting": "lung tissue", "result": 0.37}, {"measurement": "C1qb log2 nFC", "setting": "lung tissue", "result": -1.51}, {"measurement": "C1qb nFC", "setting": "lung tissue", "result": 0.35}, {"measurement": "C1qc log2 nFC", "setting": "lung tissue", "result": -1.56}, {"measurement": "C1qc nFC", "setting": "lung tissue", "result": 0.34}, {"measurement": "C3ar1 log2 nFC", "setting": "lung tissue", "result": -1.58}, {"measurement": "C3ar1 nFC", "setting": "lung tissue", "result": 0.33}, {"measurement": "Capg log2 nFC", "setting": "lung tissue", "result": -0.82}, {"measurement": "Capg nFC", "setting": "lung tissue", "result": 0.57}, {"measurement": "Casp3 log2 nFC", "setting": "lung tissue", "result": -0.85}, {"measurement": "Casp3 nFC", "setting": "lung tissue", "result": 0.56}, {"measurement": "Ccdc80 log2 nFC", "setting": "lung tissue", "result": -1.64}, {"measurement": "Ccdc80 nFC", "setting": "lung tissue", "result": 0.32}, {"measurement": "Ccl2 log2 nFC", "setting": "lung tissue", "result": -1.43}, {"measurement": "Ccl2 nFC", "setting": "lung tissue", "result": 0.37}, {"measurement": "Ccl7 log2 nFC", "setting": "lung tissue", "result": -1.75}, {"measurement": "Ccl7 nFC", "setting": "lung tissue", "result": 0.30}, {"measurement": "Ccl8 log2 nFC", "setting": "lung tissue", "result": -1.54}, {"measurement": "Ccl8 nFC", "setting": "lung tissue", "result": 0.34}, {"measurement": "Ccl12 log2 nFC", "setting": "lung tissue", "result": -2.27}, {"measurement": "Ccl12 nFC", "setting": "lung tissue", "result": 0.21}, {"measurement": "Ccn4 log2 nFC", "setting": "lung tissue", "result": -2.20}, {"measurement": "Ccn4 nFC", "setting": "lung tissue", "result": 0.22}, {"measurement": "Ccna2 log2 nFC", "setting": "lung tissue", "result": -2.26}, {"measurement": "Ccna2 nFC", "setting": "lung tissue", "result": 0.21}, {"measurement": "Ccnb1 log2 nFC", "setting": "lung tissue", "result": -2.41}, {"measurement": "Ccnb1 nFC", "setting": "lung tissue", "result": 0.19}, {"measurement": "Ccnb2 log2 nFC", "setting": "lung tissue", "result": -1.68}, {"measurement": "Ccnb2 nFC", "setting": "lung tissue", "result": 0.31}, {"measurement": "Ccne1 log2 nFC", "setting": "lung tissue", "result": -2.04}, {"measurement": "Ccne1 nFC", "setting": "lung tissue", "result": 0.24}, {"measurement": "Ccnf log2 nFC", "setting": "lung tissue", "result": -2.02}, {"measurement": "Ccnf nFC", "setting": "lung tissue", "result": 0.25}, {"measurement": "Ccr5 log2 nFC", "setting": "lung tissue", "result": -1.76}, {"measurement": "Ccr5 nFC", "setting": "lung tissue", "result": 0.30}, {"measurement": "Cd63 log2 nFC", "setting": "lung tissue", "result": -0.76}, {"measurement": "Cd63 nFC", "setting": "lung tissue", "result": 0.59}, {"measurement": "Cd276 log2 nFC", "setting": "lung tissue", "result": -1.70}, {"measurement": "Cd276 nFC", "setting": "lung tissue", "result": 0.31}, {"measurement": "Cdc20 log2 nFC", "setting": "lung tissue", "result": -1.58}, {"measurement": "Cdc20 nFC", "setting": "lung tissue", "result": 0.34}, {"measurement": "Cdca3 log2 nFC", "setting": "lung tissue", "result": -1.83}, {"measurement": "Cdca3 nFC", "setting": "lung tissue", "result": 0.28}, {"measurement": "Cdca8 log2 nFC", "setting": "lung tissue", "result": -2.32}, {"measurement": "Cdca8 nFC", "setting": "lung tissue", "result": 0.20}, {"measurement": "Cdk1 log2 nFC", "setting": "lung tissue", "result": -1.99}, {"measurement": "Cdk1 nFC", "setting": "lung tissue", "result": 0.25}]}]}
